Here are results for 1 molecule from patent EP0502418A1, “Use of levemopamil for the manufacture of a medicament for the treatment of alcohol abuse” (priority 1991, dated 1992).

For one data set, the system named is P rats. The data set is described as follows: Alcohol and water intake in P rats, three doses of levemopamil (Example 6). It counts as in vivo. The protocol: Levemopamil and a vehicle were administered in eight P rats obtained from the Indiana Alcohol Research Center at the University of Indiana School of Medicine, as described in Example 5. After establishing a stable baseline for alcohol and water intake, Each animal was injected twice (9:15 and 16:00 hours) with either one of three doses of levemopamil (3.3, 10, and 20 mg/Kg) or an equal volume of the vehicle (a solution of 1 ml absolute ethanol and 4 ml distilled water. Water and alcohol intake were monitored. The amount of alcohol and water intake was recorded twice daily before each administration of vehicle or levemopamil and continued during the drug washout periods.

The conditions of data set [1]: compared with verapamil; cited from earlier work.
For data set [2] the following is noted: in vivo; cited from earlier work.
In data set [3] the test system is alcohol preferring Wistar rats. The experiment in a line: Alcohol, water, total fluid and food intake in alcohol preferring (P) rats, single dose level (Example 5). The format is in vivo. The procedure:
Levemopamil was administered in eight selectively-bred adult male alcohol preferring Wistar rats (hereinafter "P") obtained from the Indiana Alcohol Research Center at the University of Indiana School of Medicine.
These lines of rats have been developed genetically through selected breeding by Lumeng et al., New strains of rats with alcohol preference and nonpreference. In: Thurman et al., Eds. Alcohol and Aldehyde Metabolizing Systems. Vol. 3. New York: Academic Press, 1977. pp. 537-544. The P rats prefer to drink at least 5g/Kg body weight/day of a 10% (v/v) ethanol solution in a free-choice situation with food and water available. These rats have been widely used as an animal model of alcoholism. See, Tabakoff et al., Biochemical Pharmacology of Alcohol. Meltzer, Ed. In: Psychopharmacology: The Third Generation of Progress. New York: Raven Press, 1978. pp.1521-1526.
The criteria for classification of P rats was that the average daily intake of ethanol (10%v/v) in P rats should be equal or greater than 5g/Kg body weight/day and the ethanol to water intake ratio should be equal or greater than 2:1.
After establishing a stable baseline for alcohol and water intake, Each animal was injected twice (9:30 and 16:30 hours) with a 10 mg/Kg dosage of levemopamil or an equal volume of the vehicle. Water, alcohol and food intake were monitored.

In the case of `CC(C)C(C#N)(CCCN(C)CCc1ccccc1)c1ccccc1` (centres unmarked) [levemopamil, 2-isopropyl-5-(methylphenethylamino)-2-phenylvaleronitrile], the intake of ethanol entry in the data set on P rats (10mg/Kg and 20 mg/Kg twice daily over one day, vs vehicle and base-line, Figure 5) is listed as “significantly reduced”. Also, the intake of water result in the data set on P rats (10mg/Kg and 20 mg/Kg twice daily over one day, vs vehicle and base-line, Figure 6) is reported as “significantly increased”. Also, the “Alcohol intake during the drug washout periods” value in the data set on P rats (drug washout periods after dosing) is reported as “returned to base-line levels”. In addition, the ethanol intake entry with P rats (low dose 3.3mg/Kg, injected twice, Figure 5) is recorded as “did not induce a significant change”. Besides, the water intake result with P rats (low dose 3.3mg/Kg, injected twice, Figure 6) is recorded as “did not induce a significant change”; in data set [3] (10 mg/Kg injected twice, vs vehicle and base-line, Figure 2), “significantly increased”. The cerebral availability result in data set [1] is given as “significantly higher than that of the comparison compound verapamil”. In addition, the “passage of the blood/brain barrier by brain uptake index (BUI)” value in data set [2] is “more rapidly and in considerably larger amounts than does verapamil”. For the same molecule, the “alcohol intake or consumption” value in data set [3] (10 mg/Kg injected twice (9:30 and 16:30 hours), vs baseline and vehicle, Figure 1) is on record as “significantly attenuated”. The food intake entry in data set [3] (10 mg/Kg injected twice, Figure 4) was “unaffected”. In data set [3] (10 mg/Kg injected twice, vs vehicle and base-line, Figure 3), the Total fluid intake result is “decreased”.
